{"source": "the kinase profiling compilation of Christmann-Franck et al. (2016)", "assay_in_all_cases": "KINOMEscan competition binding", "settings_in_all_cases": "compound 1.0 µM", "key": {"BRSK2 (human)": {"target": "BRSK2 (human) (UniProt Q8IWQ3)"}, "FLT3 (human)": {"target": "FLT3 (human) (UniProt P36888)"}, "CAMKK1 (human)": {"target": "CAMKK1 (human) (UniProt Q8N5S9)"}, "CIT (human)": {"target": "CIT (human) (UniProt O14578)"}, "[1]": {"tested_on": "RET (human), P07949 [V804L]"}, "[2]": {"tested_on": "KIT (human), P10721 [V559D/V654A]"}, "GRK7 (human)": {"target": "GRK7 (human) (UniProt Q8WTQ7)"}, "CSNK1G2 (human)": {"target": "CSNK1G2 (human) (UniProt P78368)", "sequence (P78368 whole entry, looked up)": "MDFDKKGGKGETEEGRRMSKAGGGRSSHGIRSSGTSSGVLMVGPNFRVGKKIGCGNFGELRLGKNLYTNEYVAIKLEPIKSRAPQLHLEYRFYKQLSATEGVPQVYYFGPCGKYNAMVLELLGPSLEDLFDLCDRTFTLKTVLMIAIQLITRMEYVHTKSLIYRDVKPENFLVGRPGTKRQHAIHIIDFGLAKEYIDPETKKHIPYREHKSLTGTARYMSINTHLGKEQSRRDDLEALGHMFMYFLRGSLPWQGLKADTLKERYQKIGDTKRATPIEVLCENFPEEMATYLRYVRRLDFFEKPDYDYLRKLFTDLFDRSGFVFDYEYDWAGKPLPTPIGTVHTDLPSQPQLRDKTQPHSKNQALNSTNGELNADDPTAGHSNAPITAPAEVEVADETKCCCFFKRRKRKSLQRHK"}, "LIMK2 (human)": {"target": "LIMK2 (human) (UniProt P53671)"}, "MAP3K13 (human)": {"target": "MAP3K13 (human) (UniProt O43283)"}, "SBK1 (human)": {"target": "SBK1 (human) (UniProt Q52WX2)"}, "TEC (human)": {"target": "TEC (human) (UniProt P42680)"}, "SGK110 (human)": {"target": "SGK110 (human) (UniProt P0C264)"}, "[3]": {"tested_on": "EGFR (human), P00533 [747-751 del / S ins]"}, "ROCK1 (human)": {"target": "ROCK1 (human) (UniProt Q13464)"}, "TESK1 (human)": {"target": "TESK1 (human) (UniProt Q15569)"}, "EPHA8 (human)": {"target": "EPHA8 (human) (UniProt P29322)"}, "CDC42BPG (human)": {"target": "CDC42BPG (human) (UniProt Q6DT37)"}, "STK36 (human)": {"target": "STK36 (human) (UniProt Q9NRP7)", "sequence (Q9NRP7 whole entry, looked up)": "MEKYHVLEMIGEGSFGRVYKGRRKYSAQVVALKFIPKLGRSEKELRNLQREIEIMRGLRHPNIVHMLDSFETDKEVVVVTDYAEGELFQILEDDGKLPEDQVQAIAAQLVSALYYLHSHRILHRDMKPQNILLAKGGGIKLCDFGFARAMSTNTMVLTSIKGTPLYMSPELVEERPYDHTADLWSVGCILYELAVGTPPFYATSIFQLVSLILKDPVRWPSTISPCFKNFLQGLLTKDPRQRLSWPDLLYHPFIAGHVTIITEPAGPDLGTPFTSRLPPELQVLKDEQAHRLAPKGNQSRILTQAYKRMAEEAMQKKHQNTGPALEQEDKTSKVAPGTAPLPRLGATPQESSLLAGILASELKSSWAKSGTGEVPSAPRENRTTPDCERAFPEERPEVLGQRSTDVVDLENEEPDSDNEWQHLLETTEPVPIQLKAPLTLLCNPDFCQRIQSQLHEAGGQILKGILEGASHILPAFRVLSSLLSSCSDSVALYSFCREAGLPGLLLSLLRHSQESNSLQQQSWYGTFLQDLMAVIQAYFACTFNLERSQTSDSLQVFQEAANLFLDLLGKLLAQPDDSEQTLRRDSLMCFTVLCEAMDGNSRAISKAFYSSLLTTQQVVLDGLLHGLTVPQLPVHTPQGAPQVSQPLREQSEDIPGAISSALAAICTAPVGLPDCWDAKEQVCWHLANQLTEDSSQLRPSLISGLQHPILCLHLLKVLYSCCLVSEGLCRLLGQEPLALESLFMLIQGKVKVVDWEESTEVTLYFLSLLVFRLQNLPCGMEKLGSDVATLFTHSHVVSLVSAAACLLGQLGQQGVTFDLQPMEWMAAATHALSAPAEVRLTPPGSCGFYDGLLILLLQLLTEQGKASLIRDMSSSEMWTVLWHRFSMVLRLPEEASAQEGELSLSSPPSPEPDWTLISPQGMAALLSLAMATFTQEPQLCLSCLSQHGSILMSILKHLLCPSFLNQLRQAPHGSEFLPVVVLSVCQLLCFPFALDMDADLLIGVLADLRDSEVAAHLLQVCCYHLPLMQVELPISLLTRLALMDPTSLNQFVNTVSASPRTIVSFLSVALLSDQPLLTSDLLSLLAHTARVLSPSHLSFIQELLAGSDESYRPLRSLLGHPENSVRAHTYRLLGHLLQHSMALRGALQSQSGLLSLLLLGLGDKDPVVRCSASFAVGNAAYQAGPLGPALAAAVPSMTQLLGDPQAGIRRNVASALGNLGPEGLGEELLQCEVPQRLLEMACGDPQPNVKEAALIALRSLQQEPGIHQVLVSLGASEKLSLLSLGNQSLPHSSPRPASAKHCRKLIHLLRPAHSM"}, "MAPK15 (human)": {"target": "MAPK15 (human) (UniProt Q8TD08)"}, "ANKK1 (human)": {"target": "ANKK1 (human) (UniProt Q8NFD2)"}, "MAP4K1 (human)": {"target": "MAP4K1 (human) (UniProt Q92918)"}, "MAPK8 (human)": {"target": "MAPK8 (human) (UniProt P45983)", "sequence (P45983 whole entry, looked up)": "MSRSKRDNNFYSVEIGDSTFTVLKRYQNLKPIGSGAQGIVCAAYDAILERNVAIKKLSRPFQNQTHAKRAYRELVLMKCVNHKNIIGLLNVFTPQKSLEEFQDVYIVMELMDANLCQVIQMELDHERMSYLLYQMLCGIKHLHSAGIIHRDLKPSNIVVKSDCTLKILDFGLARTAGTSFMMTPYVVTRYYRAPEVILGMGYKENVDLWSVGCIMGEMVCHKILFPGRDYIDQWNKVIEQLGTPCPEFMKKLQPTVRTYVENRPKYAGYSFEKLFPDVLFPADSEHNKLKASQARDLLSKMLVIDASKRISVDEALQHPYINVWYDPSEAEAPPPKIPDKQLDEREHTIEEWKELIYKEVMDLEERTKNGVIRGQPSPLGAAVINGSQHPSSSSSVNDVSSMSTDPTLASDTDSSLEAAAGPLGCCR"}, "[4]": {"target": "JAK1 JH2 pseudokinase (human) (UniProt P23458)"}, "DAPK1 (human)": {"target": "DAPK1 (human) (UniProt P53355)"}, "RPS6KA5 KD2 (human)": {"target": "RPS6KA5 KD2 (human) (UniProt O75582)"}, "TIE1 (human)": {"target": "TIE1 (human) (UniProt P35590)"}, "GRK1 (human)": {"target": "GRK1 (human) (UniProt Q15835)"}, "[5]": {"tested_on": "FLT3 (human), P36888 [D835Y]"}, "PAK6 (human)": {"target": "PAK6 (human) (UniProt Q9NQU5)"}, "PIP5K1A (human)": {"target": "PIP5K1A (human) (UniProt Q99755)"}, "MAPK13 (human)": {"target": "MAPK13 (human) (UniProt O15264)"}, "PRKCE (human)": {"target": "PRKCE (human) (UniProt Q02156)", "sequence (Q02156 whole entry, looked up)": "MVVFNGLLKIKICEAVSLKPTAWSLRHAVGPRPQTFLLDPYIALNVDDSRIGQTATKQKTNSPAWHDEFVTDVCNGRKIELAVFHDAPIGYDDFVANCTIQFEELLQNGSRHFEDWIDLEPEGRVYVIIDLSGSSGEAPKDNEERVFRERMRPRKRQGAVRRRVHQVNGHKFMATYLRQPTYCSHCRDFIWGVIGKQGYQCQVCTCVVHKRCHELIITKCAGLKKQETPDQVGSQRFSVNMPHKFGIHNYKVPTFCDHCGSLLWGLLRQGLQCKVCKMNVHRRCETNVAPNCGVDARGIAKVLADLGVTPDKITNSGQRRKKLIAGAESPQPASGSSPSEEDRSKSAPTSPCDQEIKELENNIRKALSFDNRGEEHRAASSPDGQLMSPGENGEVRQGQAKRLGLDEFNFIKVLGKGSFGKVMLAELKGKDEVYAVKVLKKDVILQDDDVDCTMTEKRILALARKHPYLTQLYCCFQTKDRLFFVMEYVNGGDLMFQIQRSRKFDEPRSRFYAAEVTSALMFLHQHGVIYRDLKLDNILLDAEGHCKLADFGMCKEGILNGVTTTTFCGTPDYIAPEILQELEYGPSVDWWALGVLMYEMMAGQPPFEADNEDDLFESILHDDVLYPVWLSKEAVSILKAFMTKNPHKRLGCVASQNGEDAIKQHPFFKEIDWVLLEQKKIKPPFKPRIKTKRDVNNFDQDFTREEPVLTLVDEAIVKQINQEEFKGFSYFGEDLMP"}, "CaMK1 (human)": {"target": "CaMK1 (human) (UniProt Q14012)"}, "MELK (human)": {"target": "MELK (human) (UniProt Q14680)"}, "CSNK1E (human)": {"target": "CSNK1E (human) (UniProt P49674)"}, "MINK1 (human)": {"target": "MINK1 (human) (UniProt Q8N4C8)", "sequence (Q8N4C8 whole entry, looked up)": "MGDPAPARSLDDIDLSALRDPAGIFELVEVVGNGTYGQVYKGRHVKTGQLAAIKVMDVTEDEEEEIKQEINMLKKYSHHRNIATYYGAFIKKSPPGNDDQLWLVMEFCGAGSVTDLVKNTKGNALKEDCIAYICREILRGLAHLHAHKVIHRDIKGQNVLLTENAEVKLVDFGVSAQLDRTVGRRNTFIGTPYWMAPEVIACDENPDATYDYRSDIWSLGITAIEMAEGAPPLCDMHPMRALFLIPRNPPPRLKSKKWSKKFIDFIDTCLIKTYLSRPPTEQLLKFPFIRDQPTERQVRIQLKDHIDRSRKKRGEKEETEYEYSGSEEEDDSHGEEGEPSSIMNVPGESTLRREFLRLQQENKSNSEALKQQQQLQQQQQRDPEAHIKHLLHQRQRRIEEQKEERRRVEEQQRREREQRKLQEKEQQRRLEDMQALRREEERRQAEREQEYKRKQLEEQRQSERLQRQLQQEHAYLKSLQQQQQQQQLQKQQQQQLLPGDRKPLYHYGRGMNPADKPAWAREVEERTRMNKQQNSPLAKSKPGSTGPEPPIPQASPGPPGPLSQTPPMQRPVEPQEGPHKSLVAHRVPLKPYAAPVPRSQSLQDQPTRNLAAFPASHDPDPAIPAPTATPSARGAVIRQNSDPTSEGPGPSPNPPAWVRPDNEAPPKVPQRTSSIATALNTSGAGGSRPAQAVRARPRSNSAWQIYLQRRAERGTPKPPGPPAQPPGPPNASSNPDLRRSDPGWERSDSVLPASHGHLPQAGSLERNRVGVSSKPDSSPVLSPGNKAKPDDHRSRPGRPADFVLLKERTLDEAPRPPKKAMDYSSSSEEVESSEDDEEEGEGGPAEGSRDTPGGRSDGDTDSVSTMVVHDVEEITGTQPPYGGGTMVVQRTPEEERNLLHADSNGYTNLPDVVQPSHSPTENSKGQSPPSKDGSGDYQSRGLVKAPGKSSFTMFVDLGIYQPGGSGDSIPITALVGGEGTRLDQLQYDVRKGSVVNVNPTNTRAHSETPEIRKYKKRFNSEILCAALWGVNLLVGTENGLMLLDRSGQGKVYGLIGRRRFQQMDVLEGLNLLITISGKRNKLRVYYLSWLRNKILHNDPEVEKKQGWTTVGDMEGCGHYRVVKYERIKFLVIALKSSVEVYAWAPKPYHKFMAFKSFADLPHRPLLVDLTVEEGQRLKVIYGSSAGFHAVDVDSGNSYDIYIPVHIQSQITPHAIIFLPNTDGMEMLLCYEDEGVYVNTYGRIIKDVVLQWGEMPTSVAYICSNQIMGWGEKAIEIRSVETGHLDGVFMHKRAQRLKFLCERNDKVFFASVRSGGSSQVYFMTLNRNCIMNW"}, "KDR (human)": {"target": "KDR (human) (UniProt P35968)"}, "ACVR1 (human)": {"target": "ACVR1 (human) (UniProt Q04771)", "sequence (Q04771 whole entry, looked up)": "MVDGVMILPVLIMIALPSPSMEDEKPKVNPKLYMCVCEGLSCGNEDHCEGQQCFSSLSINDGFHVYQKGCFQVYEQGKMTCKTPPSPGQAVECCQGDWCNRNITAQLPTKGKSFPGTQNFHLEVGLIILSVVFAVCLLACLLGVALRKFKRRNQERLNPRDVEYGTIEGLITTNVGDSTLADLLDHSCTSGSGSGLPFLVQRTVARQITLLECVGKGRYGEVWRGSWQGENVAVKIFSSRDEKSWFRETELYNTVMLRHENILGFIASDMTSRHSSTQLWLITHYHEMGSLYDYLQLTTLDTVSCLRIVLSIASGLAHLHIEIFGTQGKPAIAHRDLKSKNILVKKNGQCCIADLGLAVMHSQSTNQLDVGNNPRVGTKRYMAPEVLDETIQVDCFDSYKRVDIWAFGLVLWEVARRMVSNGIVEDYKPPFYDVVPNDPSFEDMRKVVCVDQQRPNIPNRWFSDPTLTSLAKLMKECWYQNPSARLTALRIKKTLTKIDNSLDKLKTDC"}, "CSNK1D (human)": {"target": "CSNK1D (human) (UniProt P48730)"}}}
{"smiles": "Nc1cc(C(F)(F)F)c(-c2cc(N3CCOCC3)nc(N3CCOCC3)n2)cn1", "values": [{"measurement": "inhibition of binding", "setting": "BRSK2 (human)", "value": 0, "unit": "%"}, {"measurement": "inhibition of binding", "setting": "FLT3 (human)", "value": 8, "unit": "%"}, {"measurement": "inhibition of binding", "setting": "CAMKK1 (human)", "value": 0, "unit": "%"}, {"measurement": "inhibition of binding", "setting": "CIT (human)", "value": 0, "unit": "%"}, {"measurement": "inhibition of binding", "setting": "[1]", "value": 12, "unit": "%"}, {"measurement": "inhibition of binding", "setting": "[2]", "value": 0, "unit": "%"}, {"measurement": "inhibition of binding", "setting": "GRK7 (human)", "value": 3, "unit": "%"}, {"measurement": "inhibition of binding", "setting": "CSNK1G2 (human)", "value": 0, "unit": "%"}, {"measurement": "inhibition of binding", "setting": "LIMK2 (human)", "value": 0, "unit": "%"}, {"measurement": "inhibition of binding", "setting": "MAP3K13 (human)", "value": 0, "unit": "%"}, {"measurement": "inhibition of binding", "setting": "SBK1 (human)", "value": 17, "unit": "%"}, {"measurement": "inhibition of binding", "setting": "TEC (human)", "value": 3, "unit": "%"}, {"measurement": "inhibition of binding", "setting": "SGK110 (human)", "value": 3, "unit": "%"}, {"measurement": "inhibition of binding", "setting": "[3]", "value": 4, "unit": "%"}, {"measurement": "inhibition of binding", "setting": "ROCK1 (human)", "value": 0, "unit": "%"}, {"measurement": "inhibition of binding", "setting": "TESK1 (human)", "value": 0, "unit": "%"}, {"measurement": "inhibition of binding", "setting": "EPHA8 (human)", "value": 0, "unit": "%"}, {"measurement": "inhibition of binding", "setting": "CDC42BPG (human)", "value": 0, "unit": "%"}, {"measurement": "inhibition of binding", "setting": "STK36 (human)", "value": 0, "unit": "%"}, {"measurement": "inhibition of binding", "setting": "MAPK15 (human)", "value": 2, "unit": "%"}, {"measurement": "inhibition of binding", "setting": "ANKK1 (human)", "value": 0, "unit": "%"}, {"measurement": "inhibition of binding", "setting": "MAP4K1 (human)", "value": 0, "unit": "%"}, {"measurement": "inhibition of binding", "setting": "MAPK8 (human)", "value": 0, "unit": "%"}, {"measurement": "inhibition of binding", "setting": "[4]", "value": 0, "unit": "%"}, {"measurement": "inhibition of binding", "setting": "DAPK1 (human)", "value": 2, "unit": "%"}, {"measurement": "inhibition of binding", "setting": "RPS6KA5 KD2 (human)", "value": 50, "unit": "%"}, {"measurement": "inhibition of binding", "setting": "TIE1 (human)", "value": 0, "unit": "%"}, {"measurement": "inhibition of binding", "setting": "GRK1 (human)", "value": 0, "unit": "%"}, {"measurement": "inhibition of binding", "setting": "[5]", "value": 12, "unit": "%"}, {"measurement": "inhibition of binding", "setting": "PAK6 (human)", "value": 16, "unit": "%"}, {"measurement": "inhibition of binding", "setting": "PIP5K1A (human)", "value": 0, "unit": "%"}, {"measurement": "inhibition of binding", "setting": "MAPK13 (human)", "value": 0, "unit": "%"}, {"measurement": "inhibition of binding", "setting": "PRKCE (human)", "value": 0, "unit": "%"}, {"measurement": "inhibition of binding", "setting": "CaMK1 (human)", "value": 4, "unit": "%"}, {"measurement": "inhibition of binding", "setting": "MELK (human)", "value": 0, "unit": "%"}, {"measurement": "inhibition of binding", "setting": "CSNK1E (human)", "value": 7, "unit": "%"}, {"measurement": "inhibition of binding", "setting": "MINK1 (human)", "value": 0, "unit": "%"}, {"measurement": "inhibition of binding", "setting": "KDR (human)", "value": 0, "unit": "%"}, {"measurement": "inhibition of binding", "setting": "ACVR1 (human)", "value": 0, "unit": "%"}, {"measurement": "inhibition of binding", "setting": "CSNK1D (human)", "value": 27, "unit": "%"}]}
